The supplement of paper PMC8882468

How the values were obtained:
Experiment in all cases: CTG-3D luminescence at 96 h relative to day-0 seeding control (ratio to day 0); higher = more growth / less cytotoxicity; PDxO 3D drug screen, 96 h, CTG-3D normalised to day-0 seeding control.
[1] = system: HCI-016 (organoid from a triple-negative breast cancer xenograft)
[2] = system: HCI-011.E2 (organoid from an ER-positive breast cancer xenograft)
[3] = system: HCI-005.E2 (organoid from a breast cancer xenograft with a HER2-positive history)
[4] = system: HCI-019 (organoid from a triple-negative breast cancer xenograft)
[5] = system: HCI-003.E2 (organoid from an ER-positive breast cancer xenograft)
[6] = system: HCI-025 (organoid from a breast cancer xenograft)

O=C(O)C1(C(=O)O)CCC1.[NH2-].[NH2-].[Pt+2] [carboplatin]
CTG-3D luminescence at 96 h
Conditions	12.5 pM	0.00025 µM	0.005 µM	0.1 µM	1 µM	10 µM	100 µM	625 fM
[1], days in culture: 153	3.27	2.03	2.66	2.2	2.81	0.866	0.0935	2.64
[1], days in culture: 172	2.27	2.25	1.89	1.3	1.71	0.761	0.139	1.78
[1], days in culture: 190	1.49	1.29	1.53	1.17	1.46	0.642	0.12	1.18
[1], days in culture: 199	1.55	1.29	1.34	1.29	1.64	0.782	0.081	1.86
[2], days in culture: 74	2.31	2.54	2.04	1.86	2.2	2.77	2.69	1.99
[4], days in culture: 110	1.39	1.76	1.53	2.63	1.29	1.16	0.26	1.97
[4], days in culture: 131	2.21	3.56	2.77	2.39	2.12	1.23	0.234	3.26
[4], days in culture: 152	2.94	2.48	2.23	1.4	1.99	1.4	0.291	1.64
[6], days in culture: 172	2.56	1.71	3.2	1.24	2.75	1.11	0.15	1.35
[6], days in culture: 209	1.97	1.73	1.67	1.49	1.79	0.85	0.119	1.86
[6], days in culture: 218	1.73	1.73	1.72	2.01	1.43	1.14	0.203	1.73

CTG-3D luminescence at 96 h
Conditions	12.5 pM	0.00025 µM	0.005 µM	0.1 µM	1 µM	10 µM	100 µM	625 fM
[2]	1.65	1.72	1.54	2.26	1.71	2.08	1.71	1.69
[3]	1.69	2.11	1.73	1.87	1.51	1.24	0.225	1.47
[5]	2.12	2.49	2.22	2.23	2.32	2.35	1.65	2.11

COc1cc2c(Oc3ccc4[nH]c(C)cc4c3F)ncnc2cc1OCCCN1CCCC1 [cediranib]
CTG-3D luminescence at 96 h
Conditions	12.5 pM	0.00025 µM	0.005 µM	0.1 µM	1 µM	10 µM	100 µM	625 fM
[1], days in culture: 153	3.21	2.24	2.18	2.54	3.03	0.161	-0.00356	2.44
[1], days in culture: 172	2.32	2.05	1.6	1.62	1.55	0.397	-0.000672	1.64
[1], days in culture: 190	1.57	1.2	1.45	1.43	1.44	0.423	5.93e-05	1.13
[1], days in culture: 199	1.23	1.38	1.17	1.65	1.57	0.0517	-0.0032	1.73
[2], days in culture: 74	2.32	2.91	2.13	2.41	2.47	2.28	0.0101	2.38
[4], days in culture: 110	1.88	1.82	1.98	2.39	1.07	0.1	-0.00352	2.01
[4], days in culture: 131	2.89	3.08	3.29	3.43	1.59	0.0352	-0.00454	3.39
[4], days in culture: 152	2.41	3.23	2.62	1.68	0.851	0.22	0.000827	2.04
[6], days in culture: 172	2.66	1.84	3.42	1.99	2.79	0.0165	-0.00438	2.12
[6], days in culture: 209	1.77	1.18	1.76	1.47	2.18	0.022	-0.00409	1.31
[6], days in culture: 218	1.52	1.84	2.1	1.73	1.5	0.0433	-0.00599	1.86

CTG-3D luminescence at 96 h
Conditions	12.5 pM	0.00025 µM	0.005 µM	0.1 µM	1 µM	10 µM	100 µM	625 fM
[2]	1.53	1.52	1.45	2.05	1.65	1.44	0.0243	1.97
[3]	1.5	1.54	1.77	1.68	1.11	0.322	0.0129	1.54
[5]	2.13	2.53	2.12	2.33	1.95	0.251	0.0212	2.18

C[C@@H]1COCCN1c1cc(C2([S@](C)(=N)=O)CC2)nc(-c2cc[nH]c3nccc2-3)n1 [ceralasertib]
CTG-3D luminescence at 96 h
Conditions	12.5 pM	0.00025 µM	0.005 µM	0.1 µM	1 µM	10 µM	100 µM	625 fM
[1], days in culture: 153	3.13	2.07	1.95	2.28	1.72	0.113	0.0761	2.11
[1], days in culture: 172	2.3	1.91	1.66	1.88	1.12	0.141	0.0786	1.92
[1], days in culture: 190	1.54	1.14	1.72	1.27	1.11	0.1	0.0608	1.28
[1], days in culture: 199	1.42	1.55	1.36	1.25	0.986	0.0835	0.0684	1.6
[2], days in culture: 74	2.18	2.33	1.97	1.85	1.53	0.982	0.237	1.86
[4], days in culture: 110	1.9	1.2	1.15	2	0.748	0.526	0.468	1.62
[4], days in culture: 131	2.22	3.35	3.06	3.3	1.98	0.424	0.71	3.75
[4], days in culture: 152	2.6	2.77	2.34	2.22	1.1	0.604	0.499	2.45
[6], days in culture: 172	2.29	1.93	3.61	2.46	1.59	0.359	0.297	1.92
[6], days in culture: 209	1.3	1.6	1.64	1	0.856	0.386	0.184	1.38
[6], days in culture: 218	1.86	1.85	2.07	1.64	0.97	0.482	0.269	1.88

CTG-3D luminescence at 96 h
Conditions	12.5 pM	0.00025 µM	0.005 µM	0.1 µM	1 µM	10 µM	100 µM	625 fM
[2]	1.56	1.76	1.56	1.78	1.42	1.02	0.326	1.89
[3]	1.83	1.7	1.86	1.9	1.16	0.849	0.6	1.78
[5]	2.11	2.23	2.12	2.45	1.51	0.353	0.0571	2.11

Cc1cc(Nc2ncc(Cl)c(Nc3ccccc3S(=O)(=O)C(C)C)n2)c(OC(C)C)cc1C1CCNCC1 [ceritinib]
CTG-3D luminescence at 96 h
Conditions	12.5 pM	0.00025 µM	0.005 µM	0.1 µM	1 µM	10 µM	100 µM	625 fM
[1], days in culture: 153	3.1	1.87	2.13	1.93	2.1	0.0113	-0.00664	2.35
[1], days in culture: 172	2.65	2.04	1.89	1.31	1.46	0.00857	-0.00483	2.1
[1], days in culture: 190	1.83	1.16	1.62	1.01	1.42	0.0979	-0.0035	1.25
[1], days in culture: 199	1.55	1.22	1.18	1.49	1.36	0.0047	-0.00558	1.96
[2], days in culture: 74	1.46	1.59	1.77	2.11	1.4	0.0662	-0.00371	1.72
[4], days in culture: 110	1.94	1.72	1.21	2.24	1.78	0.533	-0.00638	2.49
[4], days in culture: 131	2.4	3	2.64	3.8	2.36	0.0735	-0.00829	3.86
[4], days in culture: 152	2.83	2.4	1.79	1.51	1.37	0.01	-0.00373	2.52
[6], days in culture: 172	2.83	2.05	3.23	2.01	2.79	0.00721	-0.00729	2.37
[6], days in culture: 209	1.92	1.29	1.23	1.33	1.33	0.628	-0.00366	1.68
[6], days in culture: 218	2.02	1.87	1.86	1.8	1.36	1.48	-0.00328	2.18

CTG-3D luminescence at 96 h
Conditions	12.5 pM	0.00025 µM	0.005 µM	0.1 µM	1 µM	10 µM	100 µM	625 fM
[2]	1.68	1.409	1.37	1.85	1.4	0.353	-0.00338	1.92
[3]	1.54	1.76	1.79	1.7	1.44	0.347	0.0328	1.97
[5]	2.16	2.04	1.82	2.06	2.05	0.388	0.0194	2.21

O=C(c1ccc(F)c(F)c1Nc1ccc(I)cc1F)N1CC(O)([C@@H]2CCCCN2)C1 [cobimetinib]
CTG-3D luminescence at 96 h
Conditions	12.5 pM	0.00025 µM	0.005 µM	0.1 µM	1 µM	10 µM	100 µM	625 fM
[1], days in culture: 153	3.32	1.63	2.26	1.1	1.56	1.38	0.0036	2.59
[1], days in culture: 172	2.03	1.92	1.82	0.984	1.38	0.776	0.0013	1.63
[1], days in culture: 190	1.55	1.08	1.45	1	0.91	0.962	0.00248	1.37
[1], days in culture: 199	1.61	1.48	1.59	1.4	1.28	1.19	0.00262	1.78
[2], days in culture: 74	2.68	2.66	2.33	1.91	1.8	2.39	0.00131	2.55
[4], days in culture: 110	1.61	2.17	1.42	1.74	0.92	0.565	-0.00268	2.27
[4], days in culture: 131	2.19	3.62	3.36	3.24	1.65	1.41	-0.00394	3.82
[4], days in culture: 152	3.36	3.14	2.66	1.88	1.11	0.848	-1.56e-05	2.36
[6], days in culture: 172	2.78	1.47	2.47	1.38	1.47	0.608	-0.00396	2.94
[6], days in culture: 209	1.76	1.67	2.01	1.27	1.15	1.26	-0.00298	1.83
[6], days in culture: 218	1.65	2.13	1.88	1.42	1.18	1.58	-0.00137	1.71

CTG-3D luminescence at 96 h
Conditions	12.5 pM	0.00025 µM	0.005 µM	0.1 µM	1 µM	10 µM	100 µM	625 fM
[2]	1.67	1.69	1.54	1.81	1.6	1.58	0.00136	1.85
[3]	1.55	1.65	1.32	1.05	0.579	0.594	0.00269	1.63
[5]	2.11	2.48	1.98	2.18	1.66	1.64	0.00926	1.93
